Laboratory results: patent US11473089B2, “Aptamer for ADAMTS5 and use for aptamer for ADAMTS5” (RIBOMIC INC., priority 2017, dated 2022)

T1: ADAMTS5 (Homo sapiens, UniProt Q9UNA0)
T1 construct: purchased R&D systems
T1 sequence (Q9UNA0 262-930): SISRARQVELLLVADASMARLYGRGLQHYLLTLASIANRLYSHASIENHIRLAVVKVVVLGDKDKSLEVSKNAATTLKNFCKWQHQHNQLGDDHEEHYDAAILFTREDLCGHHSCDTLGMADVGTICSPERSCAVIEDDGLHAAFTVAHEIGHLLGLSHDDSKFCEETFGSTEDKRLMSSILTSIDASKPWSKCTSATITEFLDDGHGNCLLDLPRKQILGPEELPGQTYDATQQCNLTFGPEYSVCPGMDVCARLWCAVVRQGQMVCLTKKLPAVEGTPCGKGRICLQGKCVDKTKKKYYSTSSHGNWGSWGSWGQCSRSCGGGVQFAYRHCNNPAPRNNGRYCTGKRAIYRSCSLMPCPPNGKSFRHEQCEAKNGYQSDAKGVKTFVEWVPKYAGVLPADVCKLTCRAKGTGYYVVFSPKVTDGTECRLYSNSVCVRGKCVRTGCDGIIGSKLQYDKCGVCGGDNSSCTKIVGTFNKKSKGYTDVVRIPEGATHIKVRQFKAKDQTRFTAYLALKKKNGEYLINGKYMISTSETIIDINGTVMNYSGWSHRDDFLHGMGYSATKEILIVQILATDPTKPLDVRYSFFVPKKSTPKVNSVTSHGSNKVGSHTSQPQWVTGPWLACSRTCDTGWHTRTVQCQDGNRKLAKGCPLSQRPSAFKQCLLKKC

B1: 1 (nucleic acid)
chain: GGGUACGACCGUCGUACGAUUGGGGCCUCCACAGCUGCUCAGCUUGGACUAAACCAAUAAGAGACUAACGCCUAGCGUAC
modifications: 2'-fluoro at CU, RNA at AG, backbone not given here
B2: 2 (nucleic acid)
chain: GGGUACGACCGUCGUACGAUUGGGCCUCCACAGCUGCUCAGCUUGGACUAAACCAAUAAGAGACUAACGCCUAGCGUAC
modifications: 2'-fluoro at CU, RNA at AG, backbone not given here

These molecules were tested against T1, ADAMTS5 (assay: ADAMTS5 enzyme inhibition, aggrecan G1-IGD-G2 cleavage, SDS-PAGE detection (evaluation method 1)). Settings: Table 2; mean of four measurements; 5 nM ADAMTS5, 50 μg/mL substrate; read-out: IC50, inhibitory activity against ADAMTS5.
Format: biochemical
Method: Whether an aptamer having the nucleotide sequence shown in SEQ ID NO: 1 inhibits the enzyme activity of ADAMTS5 was evaluated by the following method. As a substrate of ADAMTS5, the G1-IGD-G2 domain of aggrecan (manufactured by R&D systems) was used. ADAMTS5 specifically cleaves in between the 392nd glutamic acid and the 393rd alanine in the G1-IGD-G2 domain and produces two fragments. These fragments have faster electrophoretic mobility than uncleaved G1-IGD-G2. Thus, the enzyme activity of ADAMTS5 can be measured by quantifying the band intensity of G1-IGD-G2 by SDS-PAGE electrophoresis. The assay was performed in a solution A buffer with a reaction mixture volume of 10 μL. First, a mixture (10 μL) of a nucleic acid and ADAMTS5 was prepared and incubated at 25° C. for 15 min. To a substrate solution (5 μL) diluted with solution A was added a mixture (5 μL) of the nucleic acid and ADAMTS5 to start the enzyme reaction. The final concentration of ADAMTS5 in the reaction solution was 5 nM, and the final substrate concentration was 50 μg/mL. The reaction solution was incubated at 37° C. for 2 hr, 2 μL of solution D was added, and the mixture was heated at 95° C. for 2 min to stop the enzyme reaction of ADAMTS5. Solution D contains 0.25 M tris (pH 6.8), 10% SDS, 50% glycerol, 0.25% bromo phenolblue, and 20% 2-mercaptoethanol. The heat-treated reaction solution was electrophoresed by 7.5% SDS-PAGE and stained with SYPRO Orange (manufactured by Sigma-Aldrich). The staining was performed according to the manual of Sigma-Aldrich and detected using STORM840 manufactured by GE Healthcare. For analytical curves, uncleaved substrates 1000 ng, 400 ng, 160 ng, 64 ng, 25.6 ng, 10.24 ng, and 4.1 ng were electrophoresed, and staining and detection were performed in the same manner. The amount of uncleaved substrate in each reaction solution was quantified from the band intensity and the standard curve. The substrate cleavage efficiency of ADAMTS5 under these reaction conditions was 80-100%. The inhibition rate of the test substance was calculated using the following equation. inhibition rate (%)=(Sapt−SE)/(S0−SE)×100 wherein Sapt is the amount of an uncleaved substrate with the addition of a test substance, SE is the residual amount of an uncleaved substrate with the addition of ADAMTS5, and S0 is the residual amount of an uncleaved substrate without the addition of ADAMTS5.
The concentration of an inhibitor necessary for inhibiting 50% of the enzyme activity (IC50) was determined. IC50 is a mean of four measurements.
B1 was tested, and the IC50 was 16.8 ± 2.8 nM.

What follows are molecules tested against T1, ADAMTS5 (assay: binding activity to ADAMTS5 by surface plasmon resonance (Biacore T100)). Settings: Table 1; 0.1 μM ADAMTS5 analyte, aptamer immobilized on SA chip.
Method: The binding activity of aptamers having the nucleotide sequences shown in SEQ ID NOs: 1 and 2 to ADAMTS5 was evaluated by the surface plasmon resonance method. Biacore T100 manufactured by GE Healthcare was used for the measurement. The SA chip was used as the sensor chip, which had streptavidin immobilized thereon. About 800 RU of a 16-nucleotide Poly dT with biotin at the 5′-terminal was bound on the chip. […] ADAMTS5 for analyte was prepared at 0.1 μM, and injected at a flow rate of 30 μL/min for 60 sec. As the running buffer, solution C was used. The solution C is a mixed solution of 300 mM sodium chloride, 5.4 mM potassium chloride, 1.8 mM calcium chloride, 0.8 mM magnesium chloride, 20 mM tris (pH 7.6), and 0.05% Tween20.
SEQ ID NO: 2 has a sequence with one base deletion from the continuous 4 G bases in the consensus sequence, and it was shown from the measurement results of the binding activity that the continuous 4 G bases in the consensus sequence are important for the activity of aptamers. Sensorgram showing the binding of an aptamer having the nucleotide sequence shown in SEQ ID NO: 1 to ADAMTS5 is presented in FIG. 2. In Table 1, “++” indicates those with the proportion of ADAMTS5 binding amount (RU value) to the amount of aptamer immobilized on the SA chip (RU value) of not less than 40%, “+” indicates those with the proportion of not less than 10% and less than 40%, and “−” indicates those with the proportion of less than 10%.
The binding activity and enzyme inhibitory activity of aptamers having nucleotide sequences shown in SEQ ID NOs: 16-25 to ADAMTS5 were measured. The binding activity was evaluated by the surface plasmon resonance method. For the measurement, a method similar to that in Example 1 was used. The enzyme inhibitory activity was measured by a method similar to that in Example 1. […] The negative control nucleic acid refers to the nucleic acid pool used in the first round of the SELEX method. The “++” indicates those with the proportion of ADAMTS5 binding amount (RU value) to the amount of aptamer immobilized on the SA chip (RU value) of not less than 40%, and “+” indicates those with the proportion of less than 40%. […] “n.d.” means not determined.
The binding activity of the nucleic acids shown in SEQ ID NOs: 30-45 to ADAMTS5 was measured. The binding activity was evaluated by the surface plasmon resonance method. In the Table, “++” indicates those with the proportion of ADAMTS5 binding amount (RU value) to the amount of aptamer immobilized on the SA chip (RU value) of not less than 40%, “+” indicates those with the proportion of not less than 10% and less than 40%, and “−” indicates those with the proportion of less than 10%.
With B2 the “binding activity by Biacore” value was “− (proportion of less than 10%)”.
With B1 the “binding activity by Biacore” value was “++ (proportion of ADAMTS5 binding amount (RU value) to the amount of aptamer immobilized on the SA chip (RU value) of not less than 40%)”.

Same assay, conditions: Table 10
For “37 (GGGUAUUGGGGCCUCCACAGUAAAUUCUUGGACUAAACCAACUCGA; aptamer; 2'-fluoro at CU, RNA at AG, backbone not given here) [compound 37]”, the binding activity was “++ (proportion of ADAMTS5 binding amount (RU value) to the amount of aptamer immobilized on the SA chip (RU value) of not less than 40%)”.
“33 (GGGUAUUGGGGCCUCCACAGCCGAGGCUUGGACUAAACCAAUCUCGA; aptamer; 2'-fluoro at CU, RNA at AG, backbone not given here) [compound 33]” was tested, and the binding activity was “++ (proportion of ADAMTS5 binding amount (RU value) to the amount of aptamer immobilized on the SA chip (RU value) of not less than 40%)”.
In the case of “34 (GGGUAUUGGGGCCUCCACAGAAAAAACUUGGACUAAACCAACUCGA; aptamer; 2'-fluoro at CU, RNA at AG, backbone not given here) [compound 34]”, the binding activity is reported as “++ (proportion of ADAMTS5 binding amount (RU value) to the amount of aptamer immobilized on the SA chip (RU value) of not less than 40%)”.
For “44 (GGGUAUUGGGGCCUCCACAGAACUUUCUUGGACUAAACCAACUCGA; aptamer; 2'-fluoro at CU, RNA at AG, backbone not given here) [compound 44]”, the binding activity was “++ (proportion of ADAMTS5 binding amount (RU value) to the amount of aptamer immobilized on the SA chip (RU value) of not less than 40%)”.
In the case of “30 (GGGUAUUGGGGCCUCCACAAUAGAUAAAUGGACUAAACCAACUCGA; 2'-fluoro at CU, RNA at AG, backbone not given here) [compound 30]”, the binding activity is reported as “++ (proportion of ADAMTS5 binding amount (RU value) to the amount of aptamer immobilized on the SA chip (RU value) of not less than 40%)”.
With “38 (GGGUAUUGGGGCCUCCACGCUAGAAGGCUGGACUAAACCAACUCGA; aptamer; 2'-fluoro at CU, RNA at AG, backbone not given here) [compound 38]” the binding activity was “++ (proportion of ADAMTS5 binding amount (RU value) to the amount of aptamer immobilized on the SA chip (RU value) of not less than 40%)”.
In the case of “45 (GGGUAUUGGGGCCUCCACAGAAAAGUCUUGGACUAAACCAACUCGA; aptamer; 2'-fluoro at CU, RNA at AG, backbone not given here) [compound 45]”, the binding activity is reported as “++ (proportion of ADAMTS5 binding amount (RU value) to the amount of aptamer immobilized on the SA chip (RU value) of not less than 40%)”.
“32 (GGGUAUUGGGGCCUCCACAGAAAAAUCUUGGACUAAACCAAUCUCGA; aptamer; 2'-fluoro at CU, RNA at AG, backbone not given here) [compound 32]” was tested, and the binding activity was “++ (proportion of ADAMTS5 binding amount (RU value) to the amount of aptamer immobilized on the SA chip (RU value) of not less than 40%)”.
With “43 (GGGUAUUGGGGCCUCCACAGAAAAUUCUUGGACUAAACCAACUCGA; aptamer; 2'-fluoro at CU, RNA at AG, backbone not given here) [compound 43]” the binding activity was “++ (proportion of ADAMTS5 binding amount (RU value) to the amount of aptamer immobilized on the SA chip (RU value) of not less than 40%)”.
With “40 (GGGUAUUGGGGCCUCCACGCAAUGGUGCUGGACUAAACCAACUCGA; aptamer; 2'-fluoro at CU, RNA at AG, backbone not given here) [compound 40]” the binding activity was “++ (proportion of ADAMTS5 binding amount (RU value) to the amount of aptamer immobilized on the SA chip (RU value) of not less than 40%)”.
“41 (GGGUAUUGGGGCCUCCACAUGGAUACAUUGGACUAAACCAACUCGA; aptamer; 2'-fluoro at CU, RNA at AG, backbone not given here) [compound 41]” was tested, and the binding activity was “++ (proportion of ADAMTS5 binding amount (RU value) to the amount of aptamer immobilized on the SA chip (RU value) of not less than 40%)”.
For “42 (GGGUAUUGGGGCCUCCACAGAUAAUUCUUGGACUAAACCAACUCGA; aptamer; 2'-fluoro at CU, RNA at AG, backbone not given here) [compound 42]”, the binding activity was “++ (proportion of ADAMTS5 binding amount (RU value) to the amount of aptamer immobilized on the SA chip (RU value) of not less than 40%)”.
With “36 (GGGUAUUGGGGCCUCCACAGUUUAAACUUGGACUAAACCAACUCGA; aptamer; 2'-fluoro at CU, RNA at AG, backbone not given here) [compound 36]” the binding activity was “++ (proportion of ADAMTS5 binding amount (RU value) to the amount of aptamer immobilized on the SA chip (RU value) of not less than 40%)”.

Same assay, conditions: surface plasmon resonance
With B2 the “binding to ADAMTS5 (in words)” value was “did not bind to ADAMTS5”.
In the case of B1, the “binding to ADAMTS5 (in words)” value is reported as “binds to ADAMTS5”.
